The test concerns human CRP. Put plainly: CRP serum levels in CRP transgenic mice (ELISA). The test is classed as in vivo, C57BL/6J congenic CRP transgenic mice that express human CRP. As to conditions: daily oral gavage for 14 days, serum at Day 15, vs saline vehicle, n=10. The protocol: The experiment was conducted to determine the effect of the growth hormone secretagogue RC-1141 on CRP serum levels. The compound RC-1141 was tested in C57BL/6J congenic CRP transgenic mice that express human CRP.
The establishment of a breeding colony of CRPtg C57BL/6J congenic mice has been described in Szalai, A. et al., “Human C-Reactive Protein is Protective Against Fatal Streptococcus pneumoniae Infection in Transgenic Mice,” J. Immunol. 155:2557-2563 (1995), the entire content of which is hereby incorporated by reference. The breeding colony was established by mating transgenic founder males with normal female C57BL/6J mice. The normal female C57BL/6J mice were obtained from Charles River Laboratories (Boston, Mass.). Transgenic founders were obtained from Dr. Ulrich Ruther (Institut für Molekularbiologie, Medizinische Hochschule, Hannover, Germany), and were descendants of transgenic mice originally described by Ciliberto, G., R. Arcone, E. F. Wagner, U. Rüther, “Inducible and tissue-specific expression of human C-reactive protein in transgenic mice” EMBO J, 6:4017 (1987), the entire content of which is hereby incorporated by reference. […]
CRP serum levels were measured using ELISA. […]
Concentration was determined by the ELISA described above. […]

The structures appear in SMILES notation.

Turning to `CN(C(=O)/C=C/CC1(N)CCC1)[C@H](Cc1ccc(-c2ccccc2)cc1)C(=O)N(C)[C@H](Cc1ccccc1)C(=O)N1CCC(O)CC1` [RC-1141, (2E)-4-(1-aminocyclobutyl)but-2-enoic acid N-((1R)-1-{N-[(1R)-1-benzyl-2-(4-hydroxypiperidin-1-yl)-2-oxoethyl]-N-methylcarbomoyl}-2-(biphenyl-4-yl)ethyl)-N-methylamide], the CRP serum levels entry by setting is: (5 mg/kg body weight (low dose)) “significant decrease”; (10 mg/kg body weight (high dose)) “significant decrease”.

These data come from patent US20050261201A1, “Method of reducing C-reactive protein using growth hormone secretagogues” (Rejuvenon Corporation, priority 2004, published 2005).
